# Data taken from PubChem BioAssay AID743319 (Broad Institute, 2014).
# The source made the active and inactive calls.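 Rule for the calls: active = fitted curve reaches 200% activation at or below the highest valid dose tested for that compound; inconclusive = flat fit between 30 and 70% activation, or unreliable fit; inactive = the rest.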
# Target: Endoplasmic reticulum aminopeptidase 2 (Homo sapiens) (UniProt Q6P179)
# Experiment: enhanced ERAP2 Arg-AMC hydrolysis – biochemical, fluorescence plate reader, cherry-picked samples, selectivity assay for selective ERAP1 modulator project, dose response (AID 743319)
# Settings: recombinant ERAP2, Arg-AMC cleavage fluorescence, 1 h
# Endoplasmic reticulum aminopeptidase 2 (Homo sapiens), sequence (Q6P179 whole entry, looked up): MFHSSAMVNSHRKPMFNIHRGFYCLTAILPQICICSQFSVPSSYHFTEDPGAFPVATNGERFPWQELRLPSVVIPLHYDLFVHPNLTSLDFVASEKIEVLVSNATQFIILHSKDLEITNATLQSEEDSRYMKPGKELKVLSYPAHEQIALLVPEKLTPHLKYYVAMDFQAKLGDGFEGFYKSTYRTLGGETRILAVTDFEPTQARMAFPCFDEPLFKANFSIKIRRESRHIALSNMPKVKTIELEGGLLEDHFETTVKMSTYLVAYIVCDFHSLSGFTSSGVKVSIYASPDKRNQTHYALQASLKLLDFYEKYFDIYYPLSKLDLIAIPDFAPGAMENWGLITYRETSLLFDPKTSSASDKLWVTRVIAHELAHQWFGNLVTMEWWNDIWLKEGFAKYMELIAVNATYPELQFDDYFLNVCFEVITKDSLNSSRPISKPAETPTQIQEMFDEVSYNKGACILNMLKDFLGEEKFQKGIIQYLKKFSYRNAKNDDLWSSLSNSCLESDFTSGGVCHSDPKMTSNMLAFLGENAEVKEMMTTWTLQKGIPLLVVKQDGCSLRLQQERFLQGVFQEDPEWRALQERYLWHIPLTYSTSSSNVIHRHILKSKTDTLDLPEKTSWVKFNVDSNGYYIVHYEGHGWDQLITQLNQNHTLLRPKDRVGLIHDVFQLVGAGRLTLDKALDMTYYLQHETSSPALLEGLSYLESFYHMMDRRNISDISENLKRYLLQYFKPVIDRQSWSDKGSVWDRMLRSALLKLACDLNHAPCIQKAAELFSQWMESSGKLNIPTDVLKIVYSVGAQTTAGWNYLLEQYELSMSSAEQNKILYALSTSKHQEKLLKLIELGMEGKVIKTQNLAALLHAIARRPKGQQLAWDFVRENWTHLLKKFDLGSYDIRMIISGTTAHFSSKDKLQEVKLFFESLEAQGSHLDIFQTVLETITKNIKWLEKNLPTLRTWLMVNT
SMILES,activation (at 11 µM (top of the series)),AC200,further results
Cc1noc(C)c1NC(=O)N(C)C[C@@H]1Oc2c(NC(=O)Nc3ccccc3)cccc2C(=O)N([C@H](C)CO)C[C@@H]1C,10.6% (inactive),–,–
COc1cc2cc(C(=O)N3CCN(Cc4ccc5c(c4)OCO5)CC3)c(=O)oc2cc1OC,–,> 5600 nM (inactive),–
Cc1ccc(S(=O)(=O)c2cc3ccc(O)cc3oc2=O)cc1C,–,721 nM,–
CCCN(C)C[C@@H]1OCCCC[C@@H](C)Oc2ccc(NS(=O)(=O)c3ccc(OC)cc3)cc2C(=O)N([C@H](C)CO)C[C@@H]1C,–,–,activation (at 8 µM (top of the series)): 15.1% (inactive)
CCc1c(C)c2cc(Cl)c(O)c(CN(C)C)c2oc1=O,–,803 nM,–
CC(=O)Oc1cc2oc(=O)cc(C)c2cc1Cl,–,1100 nM,–
Cc1cc(=O)oc2c(CN3CCN(CCO)CC3)c(O)ccc12,–,3010 nM,–
COc1ccc(-c2cc3ccc(O)cc3oc2=O)cc1OC,–,1880 nM,–
CN1[C@@H]2Cn3c(ccc(/C=C/c4ccccc4)c3=O)[C@H]1[C@@H](C(=O)NC1CCCC1)[C@@H]2CO,–,1900 nM,–
C[C@H](CO)N1C[C@H](C)[C@H](CN(C)CC2CCCCC2)Oc2c(NC(=O)Nc3ccc4c(c3)OCO4)cccc2C1=O,-0.254% (inactive),–,–
COC(=O)[C@H]1[C@H](CO)[C@H]2Cn3c(ccc(/C=C/c4ccccc4)c3=O)[C@@H]1N2C(=O)C1CCC1,–,1600 nM,–
O=c1ccc2cc(O[C@@H]3O[C@H](CO)[C@@H](O)[C@H](O)[C@H]3O)c(O)cc2o1,–,687 nM,–
COc1ccc(NC(=O)Nc2cccc3c2O[C@H](CN(C)Cc2ccc(C(=O)O)cc2)[C@H](C)CN([C@H](C)CO)C3=O)cc1,15.1% (inactive),–,–
CNC[C@H]1OCCCC[C@@H](C)Oc2ccc(NS(=O)(=O)c3ccc(C)cc3)cc2C(=O)N([C@@H](C)CO)C[C@H]1C,1.54% (inactive),–,–
CCn1cc(CN2CCCC(C(=O)Nc3ccc(-c4nc5ccccc5[nH]4)cc3)C2)c(C)n1 (stereo unspecified),4.78% (inactive),–,–
COc1ccc(CN(C)C[C@@H]2OCCCC[C@@H](C)Oc3ccc(NS(=O)(=O)c4cccs4)cc3C(=O)N([C@H](C)CO)C[C@@H]2C)cc1,10.9% (inactive),–,–
CCCc1cc(=O)oc2c(CN(CC)CC)c(O)c(Cl)cc12,–,1330 nM,–
O=c1oc2cc(O)ccc2cc1S(=O)(=O)c1ccccc1,–,592 nM,–
COc1ccc(CN(C)C[C@@H]2OCCCC[C@@H](C)Oc3ccc(NS(=O)(=O)c4cccs4)cc3C(=O)N([C@H](C)CO)C[C@H]2C)cc1,1.04% (inactive),–,–
C[C@@H]1CCCCO[C@@H](CN(C)Cc2ccccc2)[C@H](C)CN([C@H](C)CO)C(=O)c2cc(NS(=O)(=O)c3cccs3)ccc2O1,6.39% (inactive),–,–
C[C@H]1CN([C@@H](C)CO)C(=O)c2cccc(NC(=O)Nc3ccc(F)cc3)c2O[C@@H]1CN(C)C(=O)Nc1ccc2c(c1)OCO2,18.2% (inactive),–,–
Cc1ccc2nc3c(cc(C(=O)NCc4ccccc4)c(=N)n3CCCn3ccnc3)c(=O)n2c1,–,> 11000 nM (inactive),–
COc1ccc(NC(=O)Nc2ccc3c(c2)C(=O)N([C@@H](C)CO)C[C@@H](C)[C@H](CN(C)Cc2ccc(C(=O)O)cc2)OCCCC[C@H](C)O3)cc1,37.6% (inactive),–,–
O=C(O)c1ccccc1NS(=O)(=O)c1cccc(-n2sc3ccccc3c2=O)c1,3.47% (inactive),–,–

SMILES,activation (at 11 µM (top of the series)),AC200,further results
CCCN(C)C[C@@H]1OCCCC[C@@H](C)Oc2ccc(NS(=O)(=O)c3ccc(C)cc3)cc2C(=O)N([C@@H](C)CO)C[C@@H]1C,–,–,activation (at 5 µM (top of the series)): 6.28% (inactive)
O=S(=O)(O)c1ccc(N2N=C(c3ccccc3)CC2c2ccccc2)cc1 (stereo unspecified),–,2050 nM,–
C[C@@H]1CCCCO[C@@H](CN(C)Cc2ccc(C(=O)O)cc2)[C@@H](C)CN([C@H](C)CO)C(=O)c2cc(NC(=O)Nc3cccc4ccccc34)ccc2O1,5.34% (inactive),–,–
O=C(C[C@H]1CC[C@H]2[C@@H](COC[C@@H](O)CN2C(=O)Nc2cccc(Cl)c2)O1)N1CCCCC1,8.71% (inactive),–,–
COc1ccc(-c2cc3ccc(O)cc3oc2=O)cc1,–,775 nM,–
C[C@H](CO)N1C[C@H](C)[C@H](CN(C)CC2CCCCC2)Oc2c(NC(=O)Nc3ccc(C(F)(F)F)cc3)cccc2C1=O,11.4% (inactive),–,–
Cc1c(O)ccc2cc(S(=O)(=O)c3ccccc3)c(=O)oc12,–,860 nM,–
C[C@H](CO)N1C[C@H](C)[C@H](CN(C)Cc2ccncc2)Oc2c(NC(=O)Nc3ccc(C(F)(F)F)cc3)cccc2C1=O,4.68% (inactive),–,–
C[C@H]1CN([C@@H](C)CO)C(=O)c2cccc(NC(=O)Nc3ccc(C(F)(F)F)cc3)c2O[C@@H]1CN(C)C,2.76% (inactive),–,–
C[C@@H]1CCCCO[C@@H](CN(C)Cc2ccccc2)[C@@H](C)CN([C@H](C)CO)C(=O)c2cc(NS(=O)(=O)c3cccs3)ccc2O1,–,–,activation (at 5.6 µM (top of the series)): 12.1% (inactive)
O=C(C[C@@H]1CC[C@@H]2[C@H](COC[C@H](O)CN2C(=O)Nc2cccc(Cl)c2)O1)N1CCCCC1,2.69% (inactive),–,–
C[C@@H]1CN([C@H](C)CO)C(=O)c2cccc(NC(=O)Nc3ccccc3)c2O[C@@H]1CN(C)Cc1ccc(C(=O)O)cc1,23.3% (inactive),–,–
C[C@@H]1CCCCO[C@@H](CN(C)S(C)(=O)=O)[C@@H](C)CN([C@@H](C)CO)C(=O)c2cc(NS(=O)(=O)c3ccc(Cl)cc3)ccc2O1,9.01% (inactive),–,–
Cc1ccccc1-c1ccc2c(c1)O[C@@H](CN(C)Cc1ccc(C(=O)O)cc1)[C@@H](C)CN([C@@H](C)CO)S2(=O)=O,0.523% (inactive),–,–
CC(=O)N1[C@@H]2c3ccc(/C=C/c4ccccc4)c(=O)n3C[C@H]1[C@H](CO)[C@H]2C(=O)N1CCOCC1,–,2030 nM,–
C[C@@H]1CCCCO[C@H](CN(C)Cc2ccccc2)[C@H](C)CN([C@H](C)CO)C(=O)c2cc(NS(=O)(=O)c3ccccc3)ccc2O1,22.4% (inactive),–,–
NC(=NCCc1c[nH]c2ccccc12)NS(=O)(=O)c1cc(F)ccc1F,9.24% (inactive),–,–
Cc1ccc(S(=O)(=O)Nc2ccc3c(c2)C(=O)N([C@@H](C)CO)C[C@H](C)[C@H](CN(C)C)OCCCC[C@@H](C)O3)cc1,14.1% (inactive),–,–
COCCCn1c(C(=O)N2CCOCC2)cc2c(=O)n3ccccc3nc21,–,6360 nM,–
CCNC(=O)[C@H]1[C@H](CO)[C@H]2Cn3c(ccc(/C=C/c4ccccc4)c3=O)[C@@H]1N2C(=O)C1CCCC1,–,1830 nM,–
CCN(CC)Cc1c(O)c(Cl)cc2c(C)cc(=O)oc12,–,1240 nM,–
COc1ccc(C(=O)O)cc1S(=O)(=O)Nc1cc(C(F)(F)F)ccc1N1CCCCC1,8.35% (inactive),–,–
COc1cccc(S(=O)(=O)N(C)C[C@@H]2Oc3ncccc3C(=O)N([C@H](C)CO)C[C@@H]2C)c1,4.98% (inactive),–,–
O=C(Nc1ccc(C(F)(F)F)cc1)N1[C@@H]2CNC[C@H]1C2c1ccc(-c2ccncc2)cc1 (stereo partly specified),1.51% (inactive),–,–

SMILES,activation (at 11 µM (top of the series)),AC200,further results
C[C@H]1CN([C@@H](C)CO)C(=O)c2cccc(NC(=O)Nc3ccc(C(F)(F)F)cc3)c2O[C@@H]1CN(C)CC1CC1,-16.1% (inactive),–,–
C[C@@H]1CCCCO[C@@H](CN(C)Cc2ccc3c(c2)OCO3)[C@@H](C)CN([C@H](C)CO)C(=O)c2cc(NS(=O)(=O)c3cccs3)ccc2O1,1.03% (inactive),–,–
Cc1noc(C)c1NC(=O)Nc1ccc2c(c1)C(=O)N([C@H](C)CO)C[C@@H](C)[C@@H](CN(C)Cc1ccc(C(F)(F)F)cc1)OCCCC[C@@H](C)O2,-2.75% (inactive),–,–
CCCNC(=O)C[C@H]1CC[C@@H]2[C@H](COC[C@H](O)CN2C(=O)Nc2cccc(Cl)c2)O1,19.4% (inactive),–,–
CCCN(C)C[C@@H]1OCCCC[C@@H](C)Oc2ccc(NS(=O)(=O)c3cccs3)cc2C(=O)N([C@H](C)CO)C[C@@H]1C,11% (inactive),–,–
O=c1cc(CN2CCN(Cc3ccccc3)CC2)c2ccc(O)cc2o1,–,3540 nM,–
COc1ccc(CN(C)C[C@@H]2OCCCC[C@H](C)Oc3ccc(NS(=O)(=O)c4cccs4)cc3C(=O)N([C@H](C)CO)C[C@@H]2C)cc1,10.2% (inactive),–,–
COc1ccc(CNCc2c(O)c(Cl)cc3c(C)c(C)c(=O)oc23)c(OC)c1,–,1030 nM,–
Cc1noc(C)c1S(=O)(=O)N(C)C[C@@H]1OCCCC[C@@H](C)Oc2ccc(NS(=O)(=O)c3cccs3)cc2C(=O)N([C@@H](C)CO)C[C@@H]1C,–,–,activation (at 10 µM (top of the series)): 21.7% (inactive)
COc1ccc(C2=NN(c3ccc(C(=O)O)cc3)C(c3ccc(OC)c(OC)c3)C2)cc1 (stereo unspecified),–,1580 nM,–
CCCN1[C@@H]2c3ccc(/C=C/c4ccccc4)c(=O)n3C[C@H]1[C@H](CO)[C@H]2C(=O)NCc1ccccn1,–,2190 nM,–
COc1cccc(CN(C)Cc2cc(=O)oc3cc(O)c(Cl)cc23)c1,–,1620 nM,–
C[C@H]1CN([C@@H](C)CO)C(=O)c2cccc(NC(=O)Nc3ccc4c(c3)OCO4)c2O[C@@H]1CN(C)CC1CC1,12.8% (inactive),–,–
C[C@@H]1CCCCO[C@@H](CN(C)C)[C@@H](C)CN([C@@H](C)CO)C(=O)c2cc(NS(=O)(=O)c3ccc(F)cc3)ccc2O1,5.3% (inactive),–,–
C[C@H](CO)N1C[C@H](C)[C@@H](CN(C)CC2CC2)Oc2c(NC(=O)Nc3ccc(C(F)(F)F)cc3)cccc2C1=O,-20.2% (inactive),–,–
O=C(C[C@H]1CC[C@@H]2[C@H](COC[C@@H](O)CN2C(=O)Nc2cccc(Cl)c2)O1)N1CCCCC1,32.4% (inactive),–,–
CCCN(C)C[C@@H]1OCCCC[C@@H](C)Oc2ccc(NS(=O)(=O)c3ccc(C)cc3)cc2C(=O)N([C@H](C)CO)C[C@@H]1C,–,–,activation (at 10 µM (top of the series)): 6.04% (inactive)
CCC(=O)N(C)C[C@H]1Oc2ncc(C#Cc3ccncc3)cc2C(=O)N([C@H](C)CO)C[C@H]1C,-5.99% (inactive),–,–
Cc1c(O)ccc2c(CN3CCN(Cc4ccccc4)CC3)cc(=O)oc12,–,5190 nM,–
O=C(CSc1cn[nH]n1)Nc1cccc(C(=O)O)c1,13.8% (inactive),–,–
CCCNC(=O)C[C@@H]1CC[C@@H]2[C@H](COC[C@H](O)CN2C(=O)Nc2cccc(Cl)c2)O1,22.2% (inactive),–,–
CCc1cc(=O)oc2c(CNCc3c(F)cccc3Cl)c(O)ccc12,–,1870 nM,–
C[C@@H]1CCCCO[C@@H](CN(C)C(=O)CCC(F)(F)F)[C@@H](C)CN([C@@H](C)CO)C(=O)c2cc(NS(=O)(=O)c3ccc(Cl)cc3)ccc2O1,–,> 10000 nM (inactive),–
